The values below come from patent publication US8753570B2, “Structure, synthesis, and applications for oligo phenylene ethynylenes” (STC.UNM, priority 2008, dated 2014).

For the assay, the system named is Bacillus atrophaeus. Description: Dark and uv biocidal activity. It is filed as cell-based.

With `C[N+](C)(C)CCCOc1ccc(C#Cc2ccc(C#Cc3ccc(OCCC[N+](C)(C)C)cc3)cc2)cc1` [S-OPE-EO], the killing under uv entry (365 nm uv light, 30 minutes) was “almost the same level killing”. Further, the “killing in the dark” value (dark, 6 hour exposure) is given as “several log kills”. For the same compound, the biocidal activity entry (in the dark and upon uv irradiation) is given as “remarkable biocidal activity”.
